Where “and” joins values, the source holds several entries; their conditions need not be identical. Identical values can stand only once.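 Results reflect a 48-hour exposure of cells in 96-well plates to compound at five concentrations. At the GI50, growth is halved. Definition used: TGI = concentration required for complete inhibition of growth.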
Assays:
Test in all cases: DTP human tumour cell line panel, 48 h
BT-549 breast = tested on: BT-549 breast
HS 578T breast = tested on: HS 578T breast
MCF7 breast = tested on: MCF7 breast
MDA-MB-231 breast = tested on: MDA-MB-231 breast
MDA-MB-435 = tested on: MDA-MB-435
T-47D breast = tested on: T-47D breast

SMILES | GI50 (BT-549 breast) | TGI (BT-549 breast) | GI50 (HS 578T breast) | TGI (HS 578T breast) | GI50 (MCF7 breast) | TGI (MCF7 breast) | GI50 (MDA-MB-231 breast) | TGI (MDA-MB-231 breast) | GI50 (MDA-MB-435) | TGI (MDA-MB-435) | GI50 (T-47D breast) | TGI (T-47D breast)
C#Cc1ccc(-n2c(/C=C/c3ccc(C(F)(F)F)cc3)nc3ncccc3c2=O)cc1 | 1.71 µM | 3.37 µM | 3.46 µM | > 100 µM | 2.49 µM | 10.2 µM | 2.05 µM | 5.47 µM | 2.27 µM | 6.48 µM | 2.02 µM | 4.97 µM
CCCCCN(CCCCC)CC(O)c1cc(C)c2ccc3cc(C(C)C)ccc3c2c1 (stereo unspecified) | 1.85 µM | 3.51 µM | 1.93 µM | 4.65 µM | 1.75 µM | 3.48 µM | 1.79 µM | 3.77 µM | 1.72 µM | 3.21 µM | 1.95 µM | 4.38 µM
O=S(=O)(NC1=NCCN1C(=S)SN1CCn2c1nsc2=S)c1ccc(OC(F)(F)F)cc1 |  |  | 4.83 µM | 33.1 µM | 4.52 µM | 25.2 µM | 15.1 µM | 36.1 µM | 4.47 µM | 24.5 µM | 13.9 µM | 44.4 µM
CC[C@@]1(O)C[C@H](OC2CC(N(C)C)C(O)C(C)O2)c2c(O)c3c(c(O)c2[C@H]1OC1CC(N(C)C)C(O)C(C)O1)C(=O)c1cccc(O)c1C3=O (stereo partly specified) | < 0.01 µM | 0.293 µM and 0.102 µM | < 0.01 µM | 0.388 µM and 0.0724 µM | < 0.01 µM | 0.381 µM and 0.0743 µM | < 0.01 µM |  | < 0.01 µM | 0.123 µM and 0.0187 µM | < 0.01 µM | 0.0379 µM
COc1cc(Cc2cnc(/N=C3\C(=O)N(CN4CCN(c5c(F)cc6c(=O)c(C(=O)O)cn(C7CC7)c6c5OC)CC4C)c4ccc(F)cc43)nc2N)cc(OC)c1OC (stereo unspecified) | 19.7 µM | 49.2 µM | 23.6 µM | 82.5 µM | 8.35 µM | 52.8 µM | 11.8 µM | 30.3 µM | 14.2 µM | 32.9 µM | 2.85 µM | 24.3 µM
O=C(Nc1ccccc1)NS(=O)(=O)c1ccc(-n2nc3c(c2-c2cccs2)Cc2ccccc2-3)cc1 | 24.1 µM | 67.9 µM | 16.8 µM | 52.5 µM | 13.4 µM | > 100 µM | 15.3 µM | 60.8 µM | 22.1 µM | 58.3 µM | 37.9 µM | > 100 µM
Cn1c2ccccc2c2c(Nc3ccccc3)c3ccccc3nc21 | 21.3 µM | 47.8 µM | 18.2 µM | 60 µM | 5.29 µM | 25.4 µM | 2.75 µM | 22.9 µM | 2.7 µM | 6.85 µM | 40.5 µM | > 100 µM
CCC(CO)Nc1nc2ccc(Cl)cc2c2ccccc12 (stereo unspecified) | 10.1 µM | 21.7 µM | 8.82 µM | 34.9 µM | 12.2 µM | 26.1 µM | 4.9 µM | 15.9 µM | 6.14 µM | 18.8 µM | 6.13 µM | 20.9 µM
Cc1ccc2c(=O)cc(-c3ccc(F)cc3)[nH]c2n1 |  | > 100 µM |  | > 100 µM |  | > 100 µM |  | > 100 µM | 5.87 µM | 22.2 µM |  | > 100 µM
CC1=C(C(=O)Nc2ccc(Cl)c(Cl)c2)C(c2cccc(Oc3ccccc3)c2)NC(=S)N1 (stereo unspecified) | 5.94 µM | 12.5 µM | 5.03 µM | 13.5 µM |  |  | 8.69 µM | 16.6 µM | 7.55 µM | 14.2 µM | 10.9 µM | 21.4 µM
O=C(O)CSc1ccc([N+](=O)[O-])cc1[N+](=O)[O-] |  | > 100 µM |  | > 100 µM |  | > 100 µM |  | > 100 µM |  | > 100 µM |  | > 100 µM
O=C(Nc1ccc(Cl)c(Cl)c1)Nc1ccc(Cl)c(Cl)c1 | 1.72 µM and 4.01 µM | 5.96 µM and 31.6 µM | 3.29 µM and 2.08 µM | 19.3 µM and 6.88 µM | 2.61 µM and 2.78 µM | 12 µM and 11.6 µM | 1.63 µM and 1.73 µM | 3.79 µM and 3.7 µM | 3.06 µM and 2.8 µM | 11.4 µM and 8.8 µM | 2.01 µM and 4.22 µM | 8.12 µM and 49 µM
O=C1CC(c2ccc3c(c2)OCO3)Nc2ccccc21 (stereo unspecified) | 5.99 µM | 55.5 µM | 17.8 µM | 77 µM | 4.96 µM | 36.7 µM | 8.06 µM | 36.5 µM | 4.94 µM | 31.1 µM | 5.23 µM | 73.9 µM
NC(=O)c1sc(-n2cnc3ccccc32)cc1OCc1ccccc1Br | 9.68 µM | > 25 µM | 9.11 µM | > 25 µM | 0.86 µM | > 25 µM | 4.96 µM | > 25 µM | 0.795 µM | 5.47 µM | 23.1 µM | > 25 µM
CC1(C)CCc2c(c3c(c4c(=O)c(O)c(-c5ccc(O)cc5)oc24)OC(C)(C)CC3)O1 |  |  | 69.8 µM | > 100 µM | > 100 µM | > 100 µM | 28.3 µM | 84.1 µM | > 100 µM | > 100 µM | 72.7 µM | > 100 µM
COc1ccc(C(=O)Cn2c(C(=O)c3ccccc3)nc(-c3ccc(OC)cc3)c2-c2ccc(OC)cc2)cc1 | > 100 µM | > 100 µM | 45.6 µM | > 100 µM | > 100 µM | > 100 µM | 64.3 µM | > 100 µM | > 100 µM | > 100 µM | > 100 µM | > 100 µM
Clc1ccc2c(NCCCCNc3nc(N4CCCCC4)nc4ccccc34)ccnc2c1 | 1.78 µM | 4.1 µM | 1.82 µM | 4.6 µM | 2.52 µM | 10.8 µM | 1.75 µM | 4.28 µM | 1.67 µM | 3.2 µM | 2.12 µM | 4.3 µM
NC(Cc1c[nH]c2c(O)cccc12)C(=O)O (stereo unspecified) | > 100 µM | > 100 µM |  |  | > 100 µM | > 100 µM | > 100 µM | > 100 µM | > 100 µM | > 100 µM | > 100 µM | > 100 µM
Cc1ccc(NC2=C(Cl)C(=O)N(Cc3ccccc3)C2=O)cc1O |  |  | 25.9 µM | 83.4 µM | 32.2 µM | > 100 µM | 21 µM | 61.5 µM | 29 µM | > 100 µM | 44.9 µM | > 100 µM
